This is an account of results in patent US20240216438A1, “COMPOSITION CONTAINING FUNCTION-REINFORCED STEM CELL FOR PREVENTION OR TREATMENT OF ATOPIC DERMATITIS” (SCM LIFESCIENCE CO., LTD., priority 2021, published 2024).

The subject of the assay is mesenchymal stem cells. In words: qRT-PCR of IDO and TSG6 expression in mesenchymal stem cells treated with priming candidates. Type of assay: cell-based. Conditions: for expression of IDO and TSG6: compared to untreated control group 0, Table 1 groups, 24 hours; for lowest effective concentrations capable of inducing significantly increased expression of both TSG6 and IDO: single substance, 24 hours treatment, qRT-PCR. As to the method:
In a 37° C. and 5% CO2 incubator, mesenchymal stem cells in a storage state (LN2 tank storage) were thawed and cultured, and at this time, the cells were cultured in a medium (DMEM, alpha-MEM) containing 10% FBS or 4% hPL until proliferated to a cell confluence of about 80%. The cultured mesenchymal stem cells were seeded in a 100 mm dish, and treated with candidate substances for reinforcing the functions of the mesenchymal stem cells for 24 hours, and then the concentrations of primary candidate substances for reinforcing the functions were set.
TNF-α and IFN-γIFN-α were selected as the primary candidate substances, and in order to confirm the lowest effective concentration capable of increasing the expression of TNFα-stimulated gene-6 (TSG6) and indoleamine 2,3-dioxygenase (IDO) to confirm the reinforced functions, the stem cells were treated with 5, 10, and 20 ng/ml of TNF-α, 5, 10, and 20 ng/ml of IFN-γ, and 10, 20, and 40 ng/ml of IFN-α, respectively, and changes in expression of TSG6 and IDO were confirmed.
The IDO was known as an immunomodulatory factor that inhibited the proliferation of immune cells such as T cells by converting tryptophan, which was essential for T cell proliferation, into kynurenine, and the TSG6 was known as an anti-inflammatory regulator secreted by mesenchymal stem cells. After culturing the stem cells, total RNA was isolated using TRIzol (Invitrogen), and cDNA was synthesized from total RNA using PrimeScript™ RT reagent Kit with gDNA Eraser (TaKaRa), and qRT-PCR was performed. The results of TSG6 and IDO according to the concentration of each candidate substance were illustrated in FIGS. 1, 2 and 3.
Through Example 1, candidate substances and concentration combinations thereof selected to search for more functionally reinforced compositions based on the candidate substances and the lowest effective concentrations confirmed to induce the reinforced functions of stem cells were set as shown in Table 1. Mesenchymal stem cells were treated with the candidate combinations described in Table 1 below for 24 hours, and the stem cells were cultured as in Example 1, and then total RNA was isolated using TRIzol (Invitrogen). Thereafter, qRT-PCR was performed by synthesizing cDNA from total RNA using the PrimeScript™ RT reagent Kit with gDNA Eraser (TaKaRa).
Vitamins were known to improve the proliferative ability of stem cells and maintain the stemness of stem cells when added during a stem cell culture process. Accordingly, various vitamins were treated in the stem cell culture process, and experiments were performed to confirm whether or not vitamins could achieve anti-inflammatory and immune function reinforcing effects of stem cells. Specifically, the stem cells were treated with various types of vitamins shown in Table 2 according to the method described in Example 1, and the results of confirming changes in expression of IDO and TSG6 according to treatment with each candidate substance were illustrated in FIG. 5.
(In qPCR the cycle at which signal appears reflects the starting amount.)

Consider IFN-α, for which the “expression of IDO and TSG6” value is on record as “increased expression”; the “lowest effective concentrations capable of inducing significantly increased expression of both TSG6 and IDO” value came to 20 ng/mL.

Regarding “IFN-γ: priming candidate substance; Table 1 group 2, 10 ng/ml”, the “expression of IDO and TSG6” value is “increased expression”; the “lowest effective concentrations capable of inducing significantly increased expression of both TSG6 and IDO” value is 10 ng/mL.

Regarding TNF-α, the “expression of IDO and TSG6” value is “increased expression”; the “lowest effective concentrations capable of inducing significantly increased expression of both TSG6 and IDO” value was found to be 10 ng/mL.
